Earlier results on 1 compound are cited in patent publication US20050272712A1, “Compositions and methods for treatment of premenstrual dysphoric disorder” (Wyeth, priority 2004, published 2005).

The conditions of the data set: daily dose of either 20 mg or 60 mg; Steiner et al. 1995.

For `CNCCC(Oc1ccc(C(F)(F)F)cc1)c1ccccc1` (stereo not shown) [fluoxetine], the “reduction of symptoms versus placebo” value is “superior to placebo in reducing symptoms”.
